From ChEMBL document CHEMBL1150821, “A new metabolite from the marine bacterium Vibrio angustum S14” (2001)
The source made the active and inactive calls. The rule behind the calls is not given here.

Assays:
Vibrio harveyi = assay: Induction of bioluminescence in Vibrio harveyi UNSW at 10 uM relative to control; format: functional
[1] = system: Agrobacterium tumefaciens; assay: Induction of acylated homoserine lactone system-mediated traI-lacZ reporter gene expression in Agrobacterium tumefaciens A136 at 2.5 ug; format: functional, organism-based

Compound	fold change (FC) (Vibrio harveyi)	Activity [1]
CCCCOC(OCC(C)C)C(C)(C)O (centres undefined)	32	Active
CC(O)CC(=O)N[C@H]1CCOC1=O (some centres undefined)	128	–
CCCC(=O)CC(=O)N[C@H]1CCOC1=O	–	Active
